{"source": "patent US8329229B2", "about": "“Steam distillation of catmint plants” (E I du Pont de Nemours and Company, priority 2006, dated 2012)", "origin": "cited, not measured here", "tested_on": "insect", "conditions": "see U.S. Ser. No. 05/112,166"}
{"smiles": "CC1COC(=O)C2C(C)CCC12", "note": "(stereo not shown) [dihydronepetalactone]", "values": [{"measurement": "insect repellency", "value": "exhibits insect repellency"}]}
